From US20240067651A1 (Biohaven Therapeutics Ltd., priority 2019, published 2024)

Key:
[1] = Stability in Simulated Gastric Fluid (SGF); type: in vitro ADME; design: key: % parent compound remaining relative to 0-minute sample
Description: (§1) Simulated gastric fluid (SGF) and Simulated intestinal fluid (SIF) stability are in vitro metrics indicating the ability of a compound to pass through the gastrointestinal tract […] or completely digested. An undigested or nearly undigested compound will usually survive gut transit long enough to be absorbed into the systemic circulation. Greater than 50% remaining intact compound at 1 hour indicates a relatively stable molecule that will likely be absorbed in the gut.
(§2) For each test compound, samples at a final concentration of 2 μg/mL are prepared in respective blank simulated gastric fluid with pepsin (pH 1.2) and simulated intestinal fluid with pancreatin (pH 6.8). All samples are incubated at 37° C. on a 150-rpm orbital shaker, and an aliquot is removed at predetermined time points (0 to 60 minutes). Samples are precipitated with three volumes of acetonitrile containing propranolol as internal standard, and centrifuged for 10 min at 2,000 g before LC-MS/MS analysis of the supernatant solutions. Percent parent compound remaining is determined relative to 0-minute incubation samples. If a sufficient number of time points are available, the degradation half-life is calculated based on the natural log of % compound remaining vs. time plot.

Plasma Stability = type: in vitro ADME, human
Description: Plasma stability estimates the ability of a compound to remain intact in the blood. For prodrugs that are intended to be hydrolyzed by plasma enzymes a certain level of instability in plasma indicates the compound is probably breaking down to the parent drug. A stability range of 25-75% remaining parent compound after 1 hour in plasma indicates the compound is likely breaking down to the parent drug molecule and a patient will be exposed to this parent molecule.
Assessment of plasma stability was carried out by individual incubations of drug candidates in fresh human plasma at a concentration of 1 μM for 1 hour at 37° C. After which, the samples were de-proteinized by addition of 2 volumes of acetonitrile containing 0.1% formic acid and internal standard, vortex mixed for 2 minutes and centrifuged at 4,000 rpm for 10 minutes to pellet precipitated protein. The resulting supernatant containing the drug candidates was diluted 5-fold with water containing 0.1% formic acid and submitted to LCMS/MS analysis. All determinations were done in triplicate. Plasma stability was expressed as percent of control remaining.
See Pelletier et al. ACS Med. Chem. Lett. 2018, 9, 752-756.

[2] = Stability in Simulated Intestinal Fluid (SIF); type: in vitro ADME; design: key: % parent compound remaining relative to 0-minute sample
Description: as §1, §2

[3] = % remaining at 1 h in simulated gastric fluid, the 15th table
[4] = % remaining at 1 h in human plasma, the 15th table
[5] = % remaining at 1 h in simulated intestinal fluid, the 15th table
[6] = % remaining at 1 h, SGF with pepsin pH 1.2, 2 μg/mL, 37° C.
[7] = % remaining at 1 h, human plasma, 1 μM, 37° C.
[8] = % remaining at 1 h, SIF with pancreatin pH 6.8, 2 μg/mL, 37° C.
[9] = simulated gastric fluid, remaining at 1 h
[10] = simulated intestinal fluid, remaining at 1 h
[11] = simulated gastric fluid, at 1 h
[12] = simulated intestinal fluid, at 1 h
[13] = bare number, unit or time not given

CCOC(=O)OCSc1nc(=O)c2[nH]ccc2n1CCOC(C)C [Example 201]
SGF [1, 3]: 100% remaining | human Plasma stability (Plasma Stability; [4]): 0% remaining | SIF [2, 5]: 43% remaining

CC(C)OCCn1c(=S)n2c(=O)c3c1ccn3COC(=O)CCC(=O)N1CCC(CC1)C(=O)OC2 [Example 140, 19-[2-(propan-2-yloxy)ethyl]-20-sulfanylidene-3,13-dioxa-1,8,15,19-tetraazatetra-cyclo[13.5.2.2^{5,8}.0^{18,22}]tetra-cosa-16,18(22)-diene-4,9,12,21-tetrone]
SGF [1, 6]: 99% remaining | human Plasma stability (Plasma Stability; [7]): 10% remaining | SIF [2, 8]: 79% remaining

N-[2-(2-aminoethoxy)ethyl]-4-oxo-1-[2-(propan-2-yloxy)ethyl]-2-sulfanylidene-1H, 2H,3H,4H,5H-pyrrolo[3,2-d]pyrimidine-5-carboxamide; trifluoroacetic acid [Example 376]
SGF [1, 9]: 98% remaining | human Plasma stability (Plasma Stability; human plasma, remaining at 1 h): 95% remaining | SIF [2, 10]: 99% remaining

bis(trifluoroacetic acid) 5-{[2-({[(5-{[(2R)-2-amino-4-methylpentanoyl]oxy}penta-noyl)oxy]methyl}sulfanyl)-4-oxo-1-[2-(propan-2-yloxy)ethyl]-1H,4H,5H-pyrrolo[3,2-d]pyrimidin-5-yl]methoxy}-5-oxopentyl (2R)-2-amino-4-methylpentanoate [Example 351]
SGF [1, 9]: 69% remaining | human Plasma stability (Plasma Stability; human plasma, remaining at 1 h): 99% remaining | SIF [2, 10]: 14% remaining

{4-oxo-1-[2-(propan-2-yloxy)ethyl]-2-sulfanylidene-1H,2H,3H,4H,5H-pyrrolo[3,2-d]pyrimidin-5-yl}methyl (2R)-1-[2-(2-{[(tert-butoxy)carbonyl]amino}acetamido) acetyl]pyrrolidine-2-carboxylate [Example 405]
SGF ([1]; % remaining after 1 h in simulated gastric fluid): 83% remaining | human Plasma stability (Plasma Stability; % remaining after 1 h in human plasma): 1% remaining | SIF ([2]; % remaining after 1 h in simulated intestinal fluid): 81% remaining

CC(C)OCCn1c(=S)[nH]c(=O)c2c1ccn2COC(=O)CCCCCCC(=O)OCn1ccc2c1c(=O)[nH]c(=S)n2CCOC(C)C [Example 136, 1,8-Bis({4-oxo-1-[2-(propan-2-yloxy)ethyl]-2-sulfanylidene-1H,2H,3H,4H,5H-pyrrolo[3,2-d]pyrimidin-5-yl}methyl) octanedioate]
SGF [1, 6]: 77% | human Plasma stability (Plasma Stability; [7]): 2% | SIF [2, 8]: 2%

CC(C)C[C@@H](N)C(=O)OCn1ccc2c1c(=O)[nH]c(=S)n2CCOC(C)C.O=C(O)C(F)(F)F [Example 324, trifluoroacetic acid {4-oxo-1-[2-(propan-2-yloxy)ethyl]-2-sulfanylidene-1H,2H,3H,4H,5H-pyrrolo[3,2-d]pyrimidin-5-yl}methyl (2R)-2-amino-4-methylpentanoate]
SGF ([1]; % remaining @ 1 h): 98%@ 1 h | human Plasma stability (Plasma Stability; % remaining @ 1 h): 1%@ 1 h | SIF ([2]; % remaining @ 1 h): 24%@ 1 h

CC(C)OCCn1c(=S)[nH]c(=O)c2c1ccn2C[C@]1(C(=O)O)CCCN1C(=O)OC(C)(C)C.O=C(O)C(F)(F)F [Example 2, trifluoroacetic acid 1-tert-butyl 2-{4-oxo-1-[2-(propan-2-yloxy)ethyl]-2-sulfanylidene-1H,2H,3H,4H,5H-pyrrolo [3,2-d]pyrimidin-5-yl}methyl(2S)-pyrrolidine-1,2-dicarboxylate]
human Plasma stability (Plasma Stability; [7]): 73%

CC(C)OCCn1c(=S)[nH]c(=O)c2c1ccn2COC(=O)N(C)c1ccccc1Cl [Example 250]
SGF [1, 11]: 99% remaining | human Plasma stability (Plasma Stability; human plasma, at 1 h): 100% remaining | SIF [2, 12]: 93% remaining

CC(C)OCCn1c(=S)n(COC(=O)CCCCOC(=O)[C@@H](N)C(C)C)c(=O)c2c1ccn2COC(=O)CCCCOC(=O)[C@@H](N)C(C)C.O=C(O)C(F)(F)F.O=C(O)C(F)(F)F [Example 337, bis(trifluoroacetic acid) (3-{[(5-{[(2S)-2-amino-3-methylbutanoyl]oxy}pentanoyl)oxy]methyl}-4-oxo-1-[2-(propan-2-yloxy)ethyl]-2-sulfanylidene-1H,2H,3H,4H,5H-pyrrolo[3,2-d]pyrimidin-5-yl)methyl 5-{[(2S)-2-amino-3-methylbutanoyl]oxy}pentanoate]
SGF [1, 13]: 98 | human Plasma stability (Plasma Stability; % remaining @ 1 h): 60% remaining | SIF [2, 13]: 30

CC(C)OCCn1c(SCOC(=O)N(C)CCOCCN)nc(=O)c2[nH]ccc21.O=C(O)C(F)(F)F [Example 380, trifluoroacetic acid ({4-oxo-1-[2-(propan-2-yloxy)ethyl]-1H,4H,5H-pyrrolo[3,2-d]pyrimidin-2-yl}sulfanyl) methyl N-[2-(2-aminoethoxy)ethyl]-N-methylcarbamate]
SGF [1, 9]: 100% remaining | human Plasma stability (Plasma Stability; human plasma, remaining at 1 h): 85% remaining | SIF [2, 10]: 99% remaining

({4-oxo-1-[2-(propan-2-yloxy)ethyl]-1H,4H,5H-pyrrolo[3,2-d]pyrimidin-2 yl}sulfanyl)methyl N-butylcarbamate [Example 185]
SGF [1, 3]: 78% @ 1 h | human Plasma stability (Plasma Stability; [4]): 96% @ 1 h | SIF [2, 5]: 67% @ 1 h

Cc1ccccc1N(C)C(=O)OCn1ccc2c1c(=O)[nH]c(=S)n2CCOC(C)C [Example 251]
SGF [1, 11]: 99% remaining | human Plasma stability (Plasma Stability; human plasma, at 1 h): 96% remaining | SIF [2, 12]: 100% remaining

(2R)-2-{[(tert-butoxy)carbonyl]amino}-3-methyl-N-{2-[2-(2-{[{{4-oxo-1-[2-(propan-2-yloxy)ethyl]-2-sulfanylidene-1H,2H,3H,4H,5H-pyrrolo[3,2-d]pyrimidin-5-yl}methoxy)carbonyl]oxy}ethoxy)eth-oxy]ethyl}butanamide [Example 377]
SGF ([1]; simulated gastric fluid, bare number, unit or time not given): 83 | human Plasma stability (Plasma Stability; human plasma, remaining at 1 h): 8% remaining | SIF ([2]; simulated intestinal fluid, bare number, unit or time not given): 11

CC(C)OCCn1c2nc(=O)c3c1ccn3COC(=O)CCCCCCC(=O)OCS2 [Example 135, 22-[2-(Propan-2-yloxy)ethyl]-6,15-dioxa-17-thia-4,19,22-triazatricyclo[16.3.1.0^{4,21}]docosa-1(21),2,18-triene-7,14,20-trione]
SGF [1, 6]: 86% | human Plasma stability (Plasma Stability; [7]): 67% | SIF [2, 8]: 67%

CC(C)OCCn1c2nc(=O)c3c1ccn3COC(=O)CCC(=O)N1CCC(CC1)C(=O)OCS2 [Example 138, 25-[2-(propan-2-yloxy)ethyl]-3,15-dioxa-5-thia-7,13,20,25-tetraazatetra-cyclo[18.2.2.1^{6,10}.0^{9,13}]penta-cosa-6,9,11-triene-2,8,16,19-tetrone]
SGF [1, 6]: 100% remaining | human Plasma stability (Plasma Stability; [7]): 66% remaining | SIF [2, 8]: 98% remaining

CCS(=O)(=O)n1ccc2c1c(=O)[nH]c(=S)n2CCOC(C)C [Example 77, 5-(ethanesulfonyl)-1-[2-(propan-2-yloxy)ethyl]-2-sulfanylidene-1H,2H,3H,4H,5H-pyrrolo[3,2-d]pyrimidin-4-one]
SGF [1, 6]: 99% | human Plasma stability (Plasma Stability; [7]): 98% | SIF [2, 8]: 96%

CC(C)OCCn1c(=S)[nH]c(=O)c2c1ccn2COC(=O)CCCCOC(=O)[C@H](N)C(C)C.O=C(O)C(F)(F)F [Example 338, trifluoroacetic acid {4-oxo-1-[2-(propan-2-yloxy)ethyl]-2-sulfanylidene-1H,2H,3H,4H,5H-pyrrolo[3,2-d]pyrimidin-5-yl}methyl 5-{[(2R)-2-amino-3-methylbutanoyl]oxy}pentanoate]
SGF [1, 13]: 99 | human Plasma stability (Plasma Stability; % remaining @ 1 h): 4% remaining | SIF [2, 13]: 3
